Test results reported in ChEMBL document CHEMBL3045473, “Affinity of 3-benzylidene- and 3-cinnamylidenemyosmine analogues for Periplaneta americana nicotinic acetylcholine receptors” (J Pestic Sci, 2006).
pIC50: −log10 of the molar value.

What was measured:
[1] = molecular target: T1, Nicotinic acetylcholine receptor alpha8 subunit (Periplaneta americana, UniProt H6TY12); experiment: Displacement of [3H]epibatidine from nAChR in Periplaneta americana (American cockroach) nerve cords membranes incubated at 24 degC for 2 hr by liquid scintillation counting method
T1 sequence (H6TY12 whole entry): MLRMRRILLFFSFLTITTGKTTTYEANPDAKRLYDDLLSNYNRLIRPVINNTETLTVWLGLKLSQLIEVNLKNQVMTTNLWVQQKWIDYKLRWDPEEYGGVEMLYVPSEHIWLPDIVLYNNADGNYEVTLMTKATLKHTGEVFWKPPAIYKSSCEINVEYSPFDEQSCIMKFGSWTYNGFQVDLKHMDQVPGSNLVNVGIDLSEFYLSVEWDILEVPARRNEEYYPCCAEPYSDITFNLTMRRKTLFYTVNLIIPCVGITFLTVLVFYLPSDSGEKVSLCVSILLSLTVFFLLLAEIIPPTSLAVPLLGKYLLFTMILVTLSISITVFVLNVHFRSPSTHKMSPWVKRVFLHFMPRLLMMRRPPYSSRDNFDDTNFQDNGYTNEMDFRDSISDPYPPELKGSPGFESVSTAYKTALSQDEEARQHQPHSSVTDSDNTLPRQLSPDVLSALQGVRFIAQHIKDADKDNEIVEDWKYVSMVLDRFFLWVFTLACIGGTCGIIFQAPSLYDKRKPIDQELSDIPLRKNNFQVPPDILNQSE

[2] = molecular target: T2, Nicotinic acetylcholine receptor alpha8 subunit (Periplaneta americana) (UniProt H6TY12); experiment: Displacement of [3H]epibatidine from nAChR in Periplaneta americana (American cockroach) nerve cords membranes at 10 uM incubated at 24 degC for 2 hr by liquid scintillation counting method
T2 sequence (whole entry): T1 sequence (H6TY12 whole entry)

| Structure (SMILES) | pIC50 [1] | inhibition [2] |
| --- | --- | --- |
| C(=C1/CCCN=C1c1cccnc1)/c1ccccc1 [3-BENZYLIDENEANABASEINE] | 7.46 | – |
| c1cncc(C2=NCCC2)c1 [MYOSMINE] | < 5.00 | 27.3% |
| Oc1ccccc1/C=C1\CCN=C1c1cccnc1 | 5.16 | – |
| COc1ccc(/C=C2\CCN=C2c2cccnc2)c(O)c1 | 5.41 | – |
| COc1cccc(/C=C2\CCN=C2c2cccnc2)c1 | < 5.00 | 23.6% |
| N#Cc1ccc(/C=C2\CCN=C2c2cccnc2)cc1 | < 5.00 | 31.4% |
| C(=C1/CCN=C1c1cccnc1)/c1ccccc1 | < 5.00 | 41.3% |
| CN(C)c1ccc(/C=C/C=C2\CCN=C2c2cccnc2)cc1 | 5.68 | – |
| Oc1cccc(/C=C2\CCN=C2c2cccnc2)c1 | < 5.00 | 32.1% |
| Clc1ccc(/C=C2\CCN=C2c2cccnc2)cc1 | < 5.00 | 21.5% |
| Clc1ccc(C2=NCCC/C2=C\c2ccccc2)cn1 | 7.67 | – |
| Fc1ccc(/C=C2\CCN=C2c2cccnc2)cc1 | < 5.00 | 22.3% |
| Oc1ccc(/C=C2\CCN=C2c2cccnc2)cc1 | 6.51 | – |
| COc1ccc(/C=C2\CCN=C2c2cccnc2)cc1 | < 5.00 | 31.4% |
| COc1ccc(/C=C2\CCN=C2c2cccnc2)c(OC)c1 | 5.34 | – |
| COc1ccccc1/C=C1\CCN=C1c1cccnc1 | < 5.00 | 49.5% |
| C(=C\c1ccccc1)/C=C1\CCN=C1c1cccnc1 [3-CINNAMYLIDENEMYOSMINE] | 5.45 | – |
| CN(C)c1ccc(/C=C2\CCN=C2c2cccnc2)cc1 | 5.26 | – |
| Oc1ccc(/C=C2\CCN=C2c2cccnc2)c(O)c1 | 6.92 | – |
